The values below come from patent US20200239530A1, “COMPOUNDS AND METHODS OF MODULATING PROTEIN DEGRADATION” (Vividion Therapeutics, Inc., priority 2017, published 2020).

Experiment [1] addresses T1, GAMT Guanidinoacetate N-methyltransferase (Homo sapiens, UniProt Q14353).
T1 construct: 200 μL of lysate containing 5 mg/ml proteome was treated with 2 μL of 100× compound stock; endogenous in cells
Nature of the experiment: Cysteine liganding, probe competition. The format is binding. In outline:
(§1)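 Probe competition in native proteome: 5 mg/ml lysate, compound 1 hr 25° C, then desthiobiotin iodoacetamide (10 mM stock) 1 hr 25° C; acetone ppt, urea/DTT reduction, iodoacetamide alkylation, trypsin, streptavidin pull-down.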

Experiment [2] deals with T2, ZNF644 Zinc finger protein 644 (Homo sapiens, UniProt Q9H582).
T2 construct: Cells were resuspended in cold PBS on ice and sonicated with a probe sonicator to achieve lysis; endogenous in cells
T2 sequence (Q9H582 1-1327): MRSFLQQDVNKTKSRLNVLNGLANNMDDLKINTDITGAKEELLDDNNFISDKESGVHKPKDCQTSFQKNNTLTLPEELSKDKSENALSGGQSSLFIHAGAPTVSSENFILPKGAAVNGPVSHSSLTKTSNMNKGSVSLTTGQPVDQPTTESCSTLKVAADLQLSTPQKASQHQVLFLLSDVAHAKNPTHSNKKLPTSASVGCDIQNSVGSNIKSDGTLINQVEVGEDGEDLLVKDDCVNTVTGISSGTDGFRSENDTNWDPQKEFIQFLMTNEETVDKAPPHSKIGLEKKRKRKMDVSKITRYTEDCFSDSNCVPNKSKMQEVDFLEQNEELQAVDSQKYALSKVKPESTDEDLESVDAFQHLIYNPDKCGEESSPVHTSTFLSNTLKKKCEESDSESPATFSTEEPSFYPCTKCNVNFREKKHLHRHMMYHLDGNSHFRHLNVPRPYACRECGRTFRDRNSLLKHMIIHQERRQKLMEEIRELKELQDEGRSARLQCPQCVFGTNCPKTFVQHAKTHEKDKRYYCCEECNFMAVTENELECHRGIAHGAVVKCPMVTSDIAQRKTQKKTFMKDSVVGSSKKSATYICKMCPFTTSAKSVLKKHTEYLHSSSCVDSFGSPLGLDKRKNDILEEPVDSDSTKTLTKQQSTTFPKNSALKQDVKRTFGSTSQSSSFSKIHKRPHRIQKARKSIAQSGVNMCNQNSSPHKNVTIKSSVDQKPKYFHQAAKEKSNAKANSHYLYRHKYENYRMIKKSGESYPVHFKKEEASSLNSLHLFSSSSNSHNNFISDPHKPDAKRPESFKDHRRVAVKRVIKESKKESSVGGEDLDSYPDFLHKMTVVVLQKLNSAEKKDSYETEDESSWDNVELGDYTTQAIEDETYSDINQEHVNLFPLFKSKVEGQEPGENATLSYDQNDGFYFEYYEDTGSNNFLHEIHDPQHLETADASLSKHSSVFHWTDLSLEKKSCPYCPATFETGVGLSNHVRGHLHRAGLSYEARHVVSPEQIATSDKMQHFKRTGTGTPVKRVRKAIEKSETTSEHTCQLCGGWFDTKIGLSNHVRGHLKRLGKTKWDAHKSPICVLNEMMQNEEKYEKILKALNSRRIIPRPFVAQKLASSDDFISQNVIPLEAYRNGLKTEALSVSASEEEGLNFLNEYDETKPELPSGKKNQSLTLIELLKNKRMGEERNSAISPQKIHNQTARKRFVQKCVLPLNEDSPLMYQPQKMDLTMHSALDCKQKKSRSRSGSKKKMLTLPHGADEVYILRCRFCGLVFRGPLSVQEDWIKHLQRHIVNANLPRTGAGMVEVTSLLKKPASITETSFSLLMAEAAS
As to the kind of experiment: Cysteine liganding, probe competition. The format is binding. The procedure, abridged: as §1

For `O=C(CCl)Nc1cc(C(F)(F)F)cc(C(F)(F)F)c1` [KBO3], in experiment [1] (uniprot Q14353), the “100 Max” value was −9.9, the 100 ave is −25.93 and the 500 ave was 6.05. For the same compound, the “500 Max” value in experiment [1] (uniprot Q14353, in % (unit assumed)) is on record as 16.85. Further, in experiment [2] (uniprot Q9H582), the “100 Max” value turned out to be 24.53, the 100 ave was 11.2825 and the 500 ave is reported as 67.685. Also, the “500 Max” value in experiment [2] (uniprot Q9H582, in % (unit assumed)) is given as 72.77.

`COc1ccc2c(c1)CCCN2C(=O)CCl` [KB02]: the Liganded result in experiment [1] (GAMT Res# 91, uniprot Q14353) is “YES”; in experiment [2] (ZNF644 Res# 507, uniprot Q9H582), “YES”.
